Molecular target: T1, caspase-3 (Rattus norvegicus, UniProt P55213)
T1 construct: endogenous in cells; host or cells: primary rat thymocytes (Sprague-Dawley), spontaneous apoptosis in culture
T1 sequence (P55213 29-175 limits assumed): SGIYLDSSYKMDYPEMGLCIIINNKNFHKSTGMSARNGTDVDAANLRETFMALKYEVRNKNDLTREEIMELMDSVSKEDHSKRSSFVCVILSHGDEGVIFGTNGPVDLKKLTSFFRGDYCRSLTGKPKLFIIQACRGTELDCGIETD
T1 sequence (P55213 176-277 limits assumed): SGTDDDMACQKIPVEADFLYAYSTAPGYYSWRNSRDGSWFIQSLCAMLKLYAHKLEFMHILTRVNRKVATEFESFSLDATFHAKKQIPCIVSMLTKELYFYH
Assay: Saturation labeling of caspases in protein extracts of thymi from CLP-operated rats dosed with M867
Assay type: binding
Conditions: low specific activity probe, 80 μg rat thymus extract
Procedure: FIG. 7. Comparison of p17 caspase labeled with [^125I]-M808 for a short or a long incubation period. Septic rats were dosed intravenously with either vehicle or the indicated concentration of M867. Thymi were collected 24 hours post-CLP surgery. Western blot showing the appearance of cleaved p17 caspase-3. Partial caspase-3 labeling with high specific activity probe for 5 minutes. Saturated [^125I]-M808 labeling of active caspases in the same thymi extracts with low specific activity probe for 3 hours or 18 hours. During the long incubation period, M867 originally present on caspase-3 (seen from low or absent labeling) dissociates from the active site and is replaced by the irreversible active site probe [^125I]-M808. Displacement is essentially complete by 3 hours since no change in labeling intensity was observed between a 3 h and 18 h incubation period at 37° C.
Quantitation of total amount of active caspase can be determined by exposing protein extracts from either cultured cells (Jurkats, thymocytes) of CLP-derived rat thymi to low-specific activity [^125I]-M808 for long period of time. Briefly, 80 μg of rat thymus protein extracts from CLP-operated rats dosed with M867, were incubated for 3 hours or 18 hours with 1250 M808 (5 nM at 2000 Ci/mmole) and M808 (395 nM). […]

**Q.** With `COc1ccc(I)cc1CC(=O)N[C@H](C(=O)NC(CC(=O)O)C(=O)CF)C(C)C` (stereo partly drawn) [[^125I]-M808, 5-fluoro-3-({N-[(5-iodo-2-methoxyphenyl)acetyl]-L-valyl}amino)-4-oxopentanoic acid] as the molecule, how does the “incubation time sufficient to label all active caspase-3 quantitatively” value read?
**A.** Its value is 3 h.
